Experimental data taken from US7179800B2 (priority 2002, dated 2007).

What was measured:
CB2 receptor = biological target: T1, CB2 receptor (Homo sapiens, UniProt P34972); test: CB2 binding procedure: displacement of [3H]CP-55,940 from membranes of transfected CHO cells; details: for CB1/CB2 (ratio of Ki): CB1 Ki divided by CB2 Ki; for Ki: means ± SEM, [3H]CP-55,940, transfected CHO cell membranes, read-out: Ki (nM) CB2
T1 construct: expressed in transfected cells; host or cells: CHO cells, G418-selected transfected line
Experimental: Membranes for CB2 binding were obtained from CHO cells. The transfected cell line was maintained in Dublecco's Modified Eagle Medium (Gibco BRL, Grand Island, N.Y.) with 10% fetal clone II (HyClone Laboratories, Inc., Logan, Utah) plus 0.3 to 0.5 mg/ml G418 (to maintain selective pressure) under 5% CO2 at 37% C. Cells were harvested with 1 mM EDTA in phosphate-buffered saline and were centrifuged at 1000×g for 5 min at 4% C. The supernatant was saved and the P1 pellet was resuspended in centrifugation buffer. Homogenization and centrifugation were repeated twice and the combined supernatant fractions were centrifuged at 40,000×g for 30 min at 4% C. The P2 pellet was resuspended in centrifugation buffer 2 (Tris HCl, 50 mM; EDTA, 1 mM; and MgCl2, 3 mM, pH 7.4) to a protein concentration of approximately 2 mg/ml. Protein concentrations were determined by the method of Bradford (1976) using Bio-Rad Protein Assay (Bio-Rad, Richmond, Calif.) and BSA standards (fatty acid free, Sigma Chemical Co., St. Louis, Mo.). The membrane preparation was divided into amounts convenient for binding assays and frozen rapidly in dry ice and stored at −80% C.
Binding was initiated by the addition of 50 μg of quickly thawed P2 membranes to test tubes containing [^3H]CP-55,940 (final reaction concentration 0.5 nM), an appropriate concentration of unlabeled CP-55,940 or test drug, and sufficient quantity of assay buffer (50 mM Tris-HCl, 1 mM EDTA, 3 mM MgCl2, 5 mg/ml bovine serum albumin, pH 7.4) to bring the total incubation volume to 0.5 ml. Concentration of [^3H]CP-55,940 in saturation studies ranged from 50 to 10,000 pM. Nonspecific binding was determined by the addition of 1 μM unlabeled CP-55,940. CP-55,940 and all cannabinoid analogs were prepared by suspension in assay buffer from a 1 mg/ml ethanolic stock without evaporation of the ethanol (final concentration of no more than 0.4%). In competition studies, analog concentrations ranged from 0.1 nM to 10 μM. After incubation at 30% C for 1 hr, binding was terminated by the addition of 2 ml of ice-cold wash buffer (50 mM Tris-HCl and 1 mg/ml BSA) and vacuum filtration through pre-treated filters in a 12-well sampling manifold (Millipore, Bedford, Mass.). Reaction vessels were washed once with 2 ml of ice-cold wash buffer. Filters were placed into 7-ml plastic scintillation vials (RPI Corp., Mount Prospect, Ill.) with 4 ml of Budget-Solve (RPI Corp.). After shaking for 30 min, the radioactivity present was determined by liquid scintillation spectrometry. Three reaction vessels were used for each drug concentration in each assay. The results represent the combined data of three independent experiments. All assays were performed in siliconized test tubes, which were prepared by air drying (12 hr) inverted borosilicate tubes after two rinses with a 0.1% solution of AquaSil (Pierce, Rockford, Ill.). The GF/C glass-fiber filters (2.4 cm, Baxter, McGaw Park, Ill.) were pre-treated in a 0.1% solution of pH 7.4 polyethylenimine (Sigma Chemical Co.) for at least 6 hr.
(§1) In addition, multiple linear regression was used to calculate the overall degree of relationship between CB1 binding affinity and potency in the mouse measures for all active cannabinoids. […] Ki values for CB1 and CB2 binding were obtained from Scatchard displacement analysis as determined via EBDA program of the KELL software package (Biosoft, Milltown, N.J.).

CB1 receptor = CB1 receptor (Rattus norvegicus, UniProt P20272); test: CB1 binding procedure: displacement of [3H]CP 55,940 from rat whole-brain P2 membranes; set-up: whole brain was homogenized and centrifuged; from tissue; host or cells: rat whole brain, P2 membrane fraction; details: means ± SEM; [3H]CP 55,940, rat brain membranes; read-out: Ki (nM) CB1
Experimental: Male ICR mice (25–32 g), obtained from Harlan (Dublin, Va.), were housed in groups of five. All animals were kept in a temperature-controlled (20–22° C.) environment with a 12-hour light-dark cycle (lights on at 7 a.m.). Separate mice were used for testing each drug dose in the in vivo behavioral procedures. Brain tissue for binding studies was obtained from male Sprague-Dawley rats (150–200 g) purchased from Harlan Laboratories (Dublin, Va.).
The methods used for tissue preparation and binding have been described previously (Compton et al., 1993) and are similar to those described by Devane et al. (1988). All assays, as described briefly below, were performed in triplicate, and the results represent the combined data from three to six individual experiments.
Following decapitation and rapid removal of the brain, whole brain was homogenized and centrifuged. The resulting pellet was termed P1. The supernatant was saved and combined with the two subsequent supernatants obtained from washing of the P1 pellet. The combined supernatant fractions were centrifuged, resulting in the P2 pellet. After further incubation and centrifuging, this pellet was resuspended in assay buffer to a protein concentration of approximately 2 mg/ml. The membrane preparation was quickly frozen in a bath solution of dry ice and 2-methylbutane (Sigma Chemical Co., St. Louis, Mo.), then stored at −80° C. for no more than 2 weeks. Prior to performing a binding assay an aliquot of frozen membrane was rapidly thawed and protein values determined by the method of Bradford (1976).
Binding was initiated by the addition of 150 μg of P2 membrane to test tubes containing 1 nM of [^3H] CP 55,940 (79 Ci/mmol) and a sufficient quantity of buffer to bring the total incubation volume to 1 ml. Nonspecific binding was determined by the addition of 1 μM unlabeled CP 55,940. Following incubation at 30° C. for 1 hr, binding was terminated by addition of ice cold buffer and vacuum filtration through pretreated filters in a 12-well sampling manifold (Millipore, Bedford, Mass.). After washing, filters were placed into plastic scintillation vials (Packard, Downer Grove, Ill.) and shaken. The quantity of radioactivity present was determined by liquid scintillation spectrometry.
as §1

CB1 receptor, sequence (P20272 whole entry): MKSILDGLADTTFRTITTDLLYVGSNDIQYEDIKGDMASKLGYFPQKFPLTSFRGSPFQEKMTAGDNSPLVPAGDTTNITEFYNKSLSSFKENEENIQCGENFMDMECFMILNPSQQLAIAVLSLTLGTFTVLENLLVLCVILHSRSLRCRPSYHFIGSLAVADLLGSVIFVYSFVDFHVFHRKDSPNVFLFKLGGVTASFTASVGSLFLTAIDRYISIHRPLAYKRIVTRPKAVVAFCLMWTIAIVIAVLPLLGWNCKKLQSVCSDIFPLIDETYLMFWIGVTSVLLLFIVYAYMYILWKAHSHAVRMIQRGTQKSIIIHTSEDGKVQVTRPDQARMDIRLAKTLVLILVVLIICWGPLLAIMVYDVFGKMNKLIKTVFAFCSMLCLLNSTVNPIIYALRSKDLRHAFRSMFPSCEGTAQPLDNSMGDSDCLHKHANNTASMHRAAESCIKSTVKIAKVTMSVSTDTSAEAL
T1 sequence (P34972 whole entry): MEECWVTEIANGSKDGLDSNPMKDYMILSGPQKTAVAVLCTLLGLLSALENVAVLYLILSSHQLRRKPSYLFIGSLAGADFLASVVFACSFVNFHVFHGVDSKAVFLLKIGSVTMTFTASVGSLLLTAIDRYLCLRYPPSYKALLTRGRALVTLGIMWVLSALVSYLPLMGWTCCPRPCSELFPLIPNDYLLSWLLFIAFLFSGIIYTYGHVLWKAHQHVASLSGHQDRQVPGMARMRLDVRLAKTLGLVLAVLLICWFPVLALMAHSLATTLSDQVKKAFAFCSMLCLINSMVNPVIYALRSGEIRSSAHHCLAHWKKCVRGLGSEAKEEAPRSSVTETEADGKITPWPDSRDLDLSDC

| Compound | CB1/CB2 (ratio of Ki) (CB2 receptor) | Ki (CB2 receptor) | Ki (CB1 receptor) | fold increase in CB2 affinity (CB2 receptor; relative to the comparator analog) |
| --- | --- | --- | --- | --- |
| CCCCCCC(C)(C)c1cc(OC)c(C2(O)CCC(=O)CC2)c(OC)c1 [O-2115] | 13 | 346 ± 49 nM | 4570 ± 173 nM | – |
| CCCCCCC(C)(C)c1cc(OC)c(C2(O)CCC3(CC2)OCCO3)c(OC)c1 [O-2092, 8-(4-(1,1-Dimethylheptyl)-2,6-dimphenyl)-1,4-dioxaspiro(4,5)decan-] | 36 | 126 ± 12 nM | 4580 ± 312 nM | – |
| CCCCCCC(C)(C)c1cc(OC)c(C2(O)CCCCC2)c(OC)c1 [O-2072] | 55 | 105 ± 19 nM | 5820 ± 662 nM | – |
| CCCCCCC(C)(C)c1cc(OC)c(C2(O)CC(C)CC(O)C2)c(OC)c1 (stereo not drawn) [O-2121] | 20 | 101 ± 14 nM | 1990 ± 77 nM | – |
| CCCCCCC(C)(C)c1cc(OC)c(C2(O)CCCCCC2)c(OC)c1 [O-2091, 1-(4-(1,1-Dimethylheptyl)-2,6-dimephenyl)-cycloheptan-1-ol] | 50 | 64 ± 8 nM | 3200 ± 141 nM | ~2 fold |
| COc1cc(C)cc(OC)c1C1(O)CCCC(C)(C)C1 (stereo not drawn) [O-2139, 1-(2,6-Dimethyoxy-methyl-phenyl)-3,3-dimethyl-cyclo-hexanol] | – | > 10000 nM | > 10000 nM | – |
| CCCCCCC(C)(C)c1cc(OC)c(C2(O)CCCC(C)(C)C2)c(OC)c1 (stereo not drawn) [O-2068] | 47 | 161 ± 24 nM | 7510 ± 721 nM | – |
| CCCCCCC(C)(C)c1cc(OCC)c(C2(O)CCCC(C)C2)c(OCC)c1 (stereo not drawn) [O-2090] | 10 | 858 ± 43 nM | 8810 ± 422 nM | – |
| CCCCCCC(C)(C)c1cc(OC)c(C2=CCC(=O)CC2)c(OC)c1 [O-2114, 4-(4-(1,1-O-methyl-heptyl)-2,6-dimethoxy-phenyl)-cyclohex-3-enone] | 5 | 1770 ± 184 nM | 8440 ± 954 nM | – |
